# Reference: patent publication US20230146455A1, “TREATMENT OF INFLAMMATORY DISEASES WITH PEPTIDES AND PHARMACEUTICAL COMPOSITIONS” (Yuyu Pharma, Inc., priority 2020, published 2023)
# Where “and” joins values, the source holds several entries; their conditions need not be identical. Identical values can stand only once. Where a SMILES comes first, the peptide text is derived from it. [ ]: non-standard residue; d: D form. Hyp = O=C(O)[C@@H]1C[C@@H](O)CN1
# Tests used:
# Format in all cases: cell-based, human
# [1] = test system: MMP-9; assay: Example 8 main study Luminex, LPS hPBMCs: MMP-9; settings: PBMC + LPS(5 ug/ml)
# Protocol: (§1) Human PBMCs were pretreated with YY-101, YDE-011, YDE-043 or reference compound; Xiidra® at various concentration (ranging from […] to 500 nM) for 2 h before stimulation. An equal volume of 0.5% DMSO was used as a vehicle control. Then, the cells were treated with LPS at 5 ug/ml, which was selected based on the pilot study. The supernatants from treated cells were harvested at 24 h and placed in a 96 well for Luminex cytokine & chemokine profiling using a Luminex 200 multiplex assay (Luminex; R&D system, USA).
# (§2) The main study arm with triplicate wells per group in a 24-well plate: • 1. Blank • 2. PBMC: 0.5% DMSO • 3. PBMC+LPS (5 ug/ml) • 4. PBMC+YY-101 500 nM • 5. PBMC+YY-101 50 nM • 6. PBMC+YY-101 5 nM • 7. PBMC+YY-101 0.5 nM • 8. PBMC+LPS (5 ug/ml)+Xiidra® 500 nM • 9. PBMC+LPS (5 ug/ml)+Xiidra® 50 nM • 10. PBMC+LPS (5 ug/ml)+Xiidra® 5 nM • 11. PBMC+LPS (5 ug/ml)+Xiidra® 0.5 nM • 12. PBMC+LPS (5 ug/ml)+Xiidra® 0.05 nM • 13. PBMC+LPS (5 ug/ml)+Xiidra® 0.005 nM • 14. PBMC+LPS (5 ug/ml)+YY-101 500 nM • 15. PBMC+LPS (5 ug/ml)+YY-101 50 nM • 16. PBMC+LPS (5 ug/ml)+YY-101 5 nM • 17. PBMC+LPS (5 ug/ml)+YY-101 0.5 nM • 18. PBMC+LPS (5 ug/ml)+YY-101 0.05 nM • 19. PBMC+LPS (5 ug/ml)+YY-101 0.005 nM • 20. PBMC+LPS (5 ug/ml)+YDE-011 500 nM • 21. PBMC+LPS (5 ug/ml)+YDE-011 50 nM • 22. PBMC+LPS (5 ug/ml)+YDE-011 5 nM • 23. PBMC+LPS (5 ug/ml)+YDE-011 0.5 nM • 24. PBMC+LPS (5 ug/ml)+YDE-011 0.05 nM • 25. PBMC+LPS (5 ug/ml)+YDE-011 0.005 nM • 26. PBMC+LPS (5 ug/ml)+YDE-043 500 nM • 27. PBMC+LPS (5 ug/ml)+YDE-043 50 nM • 28. PBMC+LPS (5 ug/ml)+YDE-043 5 nM • 29. PBMC+LPS (5 ug/ml)+YDE-043 0.5 nM • 30. PBMC+LPS (5 ug/ml)+YDE-043 0.05 nM • 31. PBMC+LPS (5 ug/ml)+YDE-043 0.005 nM
# (§3) Multiplex assay was used to measure 30 cytokines and chemokines. The 1:200 diluted cell supernatant and serial dilution of the standard were dispensed into a 96 well plate at 50 ul/well. Then, the pre-mixed cocktail of antibody-coated magnetic beads was dispensed at 50 ul/well and incubated at room temperature for 2 h in a horizontal orbital microplate shaker at 800±500 rpm. The beads were washed using a magnetic device to prevent loss. The biotin-antibody was dispensed in 50 ul of each well and incubated at room temperature for 1 h in a shaker at 800±500 rpm. After washing, streptavidin-PE was added at 50 ul/well and incubated at room temperature for 30 min in a shaker under the same conditions. Finally, after washing, wash buffer (100 ul/well) was added to the plate and incubated in a shaker for 2 min. The Luminex™ 200 setting were set according to the manufacturer's protocol. The data was calculated with a standard five-parameter logistic nonlinear regression analysis of the data (xPonent software 4.2, USA). Results were presented as concentration (ng/ml or pg/ml).
# [2] = test system: MMP-3; assay: Example 8 main study Luminex, LPS hPBMCs: MMP-3; settings: for MMP-3 Concentration: single replicates
# Protocol: as §1, §2, §3
# [3] = test system: TNF-alpha; assay: Example 8 main study Luminex, LPS hPBMCs: TNF-alpha; settings: for TNF-alpha Concentration: individual replicates; for TNF-alpha Concentration (pg/ml), Mean: mean of replicates
# Protocol: as §1, §2, §3
# [4] = test article 0.005 nM, single replicates
# [5] = test article 0.05 nM, single replicates
# [6] = test article 0.5 nM, single replicates
# [7] = test article 5 nM, single replicates
# [8] = test article 50 nM, single replicates
# [9] = test article 500 nM, single replicates
# [10] = PBMC + LPS(5 ug/ml) + YDE011 0.005 nM
# [11] = PBMC + LPS(5 ug/ml) + YDE011 0.05 nM
# [12] = PBMC + LPS(5 ug/ml) + YDE011 0.5 nM
# [13] = PBMC + LPS(5 ug/ml) + YDE011 5 nM
# [14] = PBMC + LPS(5 ug/ml) + YDE011 50 nM
# [15] = PBMC + LPS(5 ug/ml) + YDE011 500 nM
# [16] = at as low as 5 μM, LPS 5 ug/mL 24 hrs
# [17] = PBMC + LPS(5 ug/ml) + test article 0.005 nM
# [18] = PBMC + LPS(5 ug/ml) + test article 0.05 nM
# [19] = PBMC + LPS(5 ug/ml) + test article 0.5 nM
# [20] = PBMC + LPS(5 ug/ml) + test article 5 nM
# [21] = PBMC + LPS(5 ug/ml) + test article 50 nM
# [22] = PBMC + LPS(5 ug/ml) + test article 500 nM
compound,measurement,setting,value
CC(C)C[C@H](NC(=O)CNC(=O)[C@H](CC(C)C)NC(=O)[C@H](CCC(N)=O)NC(=O)CNC(=O)[C@@H]1C[C@@H](O)CN1)C(=O)N[C@@H](C)C(=O)NCC(=O)N1CCC[C@H]1C(=O)N[C@@H](CCCCN)C(=O)O [YDE-011] (H-[Hyp]GQLGLAGPK-OH),"Concentration (pg/ml), MMP-9","[1]; test article 0.005 nM, Mean",4251.7 pg/mL
same,MFI (Bead name: MMP-9),"[1]; test article 0.005 nM, Mean",29.8
same,"Concentration (pg/ml), MMP-9",[1]; [4],4148.1 pg/mL and 4612.9 pg/mL and 3994.2 pg/mL
same,MFI (Bead name: MMP-9),[1]; [4],29.5 and 31.0 and 29.0
same,"Concentration (pg/ml), MMP-9","[1]; test article 0.05 nM, Mean",4509.4 pg/mL
same,MFI (Bead name: MMP-9),"[1]; test article 0.05 nM, Mean",30.7
same,"Concentration (pg/ml), MMP-9",[1]; [5],4612.9 pg/ml (2×) and 4302.5 pg/ml
same,MFI (Bead name: MMP-9),[1]; [5],31.0 (2×) and 30.0
same,"Concentration (pg/ml), MMP-9","[1]; test article 0.5 nM, Mean",3435.2 pg/mL
same,MFI (Bead name: MMP-9),"[1]; test article 0.5 nM, Mean",27.2
same,"Concentration (pg/ml), MMP-9",[1]; [6],3384.2 pg/mL and 3688.0 pg/mL and 3233.2 pg/mL
same,MFI (Bead name: MMP-9),[1]; [6],27.0 and 28.0 and 26.5
same,"Concentration (pg/ml), MMP-9","[1]; test article 5 nM, Mean",3299.3 pg/mL
same,MFI (Bead name: MMP-9),"[1]; test article 5 nM, Mean",26.7
same,"Concentration (pg/ml), MMP-9",[1]; [7],1907.3 pg/mL and 3688.0 pg/mL and 4302.5 pg/mL
same,MFI (Bead name: MMP-9),[1]; [7],22.0 and 28.0 and 30.0
same,"Concentration (pg/ml), MMP-9","[1]; test article 50 nM, Mean",2555.4 pg/mL
same,MFI (Bead name: MMP-9),"[1]; test article 50 nM, Mean",24.2
same,"Concentration (pg/ml), MMP-9",[1]; [8],2636.1 pg/mL and 3688.0 pg/mL and 1342.1 pg/mL
same,MFI (Bead name: MMP-9),[1]; [8],24.5 and 28.0 and 20.0
same,"Concentration (pg/ml), MMP-9","[1]; test article 500 nM, Mean",2776.4 pg/mL
same,MFI (Bead name: MMP-9),"[1]; test article 500 nM, Mean",24.8
same,"Concentration (pg/ml), MMP-9",[1]; [9],4612.9 pg/mL and 931.9 pg/mL and 2784.3 pg/mL
same,MFI (Bead name: MMP-9),[1]; [9],31.0 and 18.5 and 25.0
same,"MMP-3 Concentration, Mean",[2]; [10],7336.4 pg/mL
same,MMP-3 Concentration,[2]; [10],7512.0 pg/mL and 7323.6 pg/mL and 7173.5 pg/mL
same,"MMP-3 Concentration, Mean",[2]; [11],7638.4 pg/mL
same,MMP-3 Concentration,[2]; [11],7474.3 pg/mL and 7928.9 pg/mL and 7512.0 pg/mL
same,"MMP-3 Concentration, Mean",[2]; [12],7136.1 pg/mL
same,MMP-3 Concentration,[2]; [12],7248.5 pg/mL and 7098.6 pg/mL and 7061.2 pg/mL
same,"MMP-3 Concentration, Mean",[2]; [13],6802.1 pg/mL
same,MMP-3 Concentration,[2]; [13],6282.7 pg/mL and 6800.1 pg/mL and 7323.6 pg/mL
same,"MMP-3 Concentration, Mean",[2]; [14],6735.1 pg/mL
same,MMP-3 Concentration,[2]; [14],7248.5 pg/mL and 7474.3 pg/mL and 5482.5 pg/mL
same,"MMP-3 Concentration, Mean",[2]; [15],6625.8 pg/mL
same,MMP-3 Concentration,[2]; [15],7776.9 pg/mL and 5374.6 pg/mL and 6725.8 pg/mL
same,LPS-induced MMP3 (in words),[2]; [16],significantly reduced
same,TNF-alpha Concentration,[3]; [17],2116.1 pg/mL and 1988.8 pg/mL and 1861.0 pg/mL
same,"TNF-alpha Concentration (pg/ml), Mean",[3]; [17],1988.6 pg/mL
same,TNF-alpha Concentration,[3]; [18],1861.0 pg/ml and 2052.5 pg/ml (2×)
same,"TNF-alpha Concentration (pg/ml), Mean",[3]; [18],1988.7 pg/mL
same,TNF-alpha Concentration,[3]; [19],1344.6 pg/mL and 1988.8 pg/mL and 1797.0 pg/mL
same,"TNF-alpha Concentration (pg/ml), Mean",[3]; [19],1710.1 pg/mL
same,TNF-alpha Concentration,[3]; [20],749.3 pg/mL and 1409.7 pg/mL and 1668.5 pg/mL
same,"TNF-alpha Concentration (pg/ml), Mean",[3]; [20],1275.8 pg/mL
same,TNF-alpha Concentration,[3]; [21],1732.8 pg/mL and 2179.5 pg/mL and 442.1 pg/mL
same,"TNF-alpha Concentration (pg/ml), Mean",[3]; [21],1451.5 pg/mL
same,TNF-alpha Concentration,[3]; [22],2116.1 pg/mL and 647.8 pg/mL and 1246.7 pg/mL
same,"TNF-alpha Concentration (pg/ml), Mean",[3]; [22],1336.9 pg/mL
same,LPS-induced TNF-α (in words),[3]; [16],significantly reduced
